According to patent publication US5962487A, “Antipicornaviral compounds and methods for their use and preparation” (Agouron Pharmaceuticals, Inc., priority 1997, dated 1999):
Read-outs that look alike come from different tables or passages of the source.

Experiments:
[1] = system: ENT-70; assay: Enterovirus-70 MRC5 Cell Culture Assay; format: cell-based, Enterovirus strain 70; conditions: for EC50: Enterovirus, 24 h, ENT-70 infection of MRC5 cells, XTT, one day
Method: (§1) The Echovirus strain 11 (ECHO-11) and Enterovirus strain 70 (ENT-70) were purchased from American Type Culture Collection (ATCC). Virus stocks were propagated and antiviral assays were performed in MRC5 cells (ATCC). Cells were grown in Minimal Essential Medium with 10% fetal bovine serum.
(§2) The ability of compounds to protect cells against ECHO-11 or ENT-70 infection was measured by the XTT dye reduction method. Briefly, MRC5 cells were infected with ECHO-11 or ENT-70 at a multiplicity of infection (m.o.i.) of 0.0013 (ECHO-11) and 0.0017 (ENT-70) or mock-infected with medium only. Infected or uninfected cells were resuspended at 2×10^4 cells per mL and incubated with appropriate concentrations of drug. One day later, XTT/PMS was added to test plates, and the amount of formazan produced was quantified spectrophotometrically at 450/650 nm. The EC50 was calculated as the concentration of drug that increased the percentage of formazan production in drug-treated, virus-infected cells to 50% of that produced by drug-free, uninfected cells. The 50% cytotoxic dose (CC50) was calculated as the concentration of drug that decreased the percentage of formazan produced in drug-treated, uninfected cells to 50% of that produced in drug-free, uninfected cells. The therapeutic index (TI) was calculated by dividing the CC50 by the EC50.

[2] = in vitro; format: cell-based; conditions: human, hi-hela cells
Method in brief: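 HI-HeLa cells infected with HRV-14 at m.o.i. 0.13 or mock-infected, incubated with compounds for two days; XTT/PMS formazan read at 450/650 nm. EC50 as concentration restoring formazan to 50% of mock-infected level; CC50 from mock-infected cells; TI = CC50/EC50.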

[3] = system: HRV-14; assay: Antirhinoviral HI-HeLa Cell Culture Assay (cell protection, XTT), HRV-14; format: cell-based, human rhinovirus; conditions: for TI: CC50/EC50, HRV serotype-14, 2880 min; for EC50: Rhinovirus B, HRV14, 48 h, HRV serotype-14 infected HI-HeLa cells, XTT, two days
Method in brief: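 Read-out is XTT/PMS formazan at 450/650 nm, measured two days after compound exposure of HI-HeLa cells (8×10^5 cells/mL) infected at m.o.i. 0.13 or mock-infected. EC50: protection to 50% of compound-free mock-infected signal; CC50: 50% loss in mock-infected cells; TI is their ratio.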

[4] = target: T1, Rhinovirus 3C protease (RVP) serotype 16 (Human rhinovirus 16, UniProt Q82122); assay: Inhibition of Rhinovirus Protease, serotype 16 (FRET assay); format: biochemical; conditions: enzyme start experiments, read-out: kobs/I
T1 construct: Recombinant Rhinovirus 3C proteases from serotypes 14, 16, 2 or 89 were prepared; made in house
Method: (§3) Stock solutions (50 mM, in DMSO) of various compounds were prepared; dilutions were in the same solvent. Recombinant Rhinovirus 3C proteases from serotypes 14, 16, 2 or 89 were prepared by the following standard chromatographic procedures: (1) ion exchange using Q Sepharose Fast Flow from Pharmacia; (2) affinity chromatography using Affi-Gel Blue from Biorad; and (3) sizing using Sephadex G-100 from Pharmacia. Assays contained 2% DMSO, 50 mM tris pH 7.6, 1 mM EDTA, a compound at the indicated concentrations, approximately 1 μM substrate, and 50-100 nM protease. For Ki determinations, the compound and the enzyme were preincubated for 10 minutes at 30° C. prior to addition of the substrate (substrate start). The kobs/I values were obtained from reactions initiated by addition of enzyme rather than substrate. RVP activity is measured in the fluorescence resonance energy transfer assay. The substrate was (N-terminal) DABCYL-(Gly-Arg-Ala-Val-Phe-Gln-Gly-Pro-Val-Gly)-EDANS. In the uncleaved peptide, the EDANS fluorescence was quenched by the proximal DABCYL moiety. When the peptide was cleaved, the quenching was relieved, and activity was measured as an increase in fluorescence signal.
(§4) In the above table, all data is for RVP serotype-14 unless otherwise noted in parentheses. All strains of human rhinovirus (HRV) were purchased from American Type Culture Collection (ATCC), except for serotype 14, which was produced from the infectious cDNA clone constructed and supplied to us by Dr. Roland Rueckert at the Institute for Molecular Virology, University of Wisconsin, Madison, Wis. The column designated INHIB represents the percent inhibition, with the concentration of the compound in μM indicated in parentheses, unless Ki was assigned as designated by (Ki), at 10 minute preincubation with 50 nM RVP prior to addition of substrate was used. The data in the column designated kobs/I was measured from progress curves in enzyme start experiments.

[5] = system: CVA-21; assay: Anticoxsackieviral HI-HeLa Cell Culture Assay, CVA-21; format: cell-based, Coxsackie strain A-21; conditions: for EC50: 24 h, CVA-21 infection of Hi-HeLa cells, XTT, one day
Method: as §2, with “CVA-21” for “ECHO-11”, “CVB-3” for “ENT-70”, “HI-HeLa” for “MRC5”, “0.05 (CVA-21)” for “0.0013 (ECHO-11)”, “0.08 (CVB-3)” for “0.0017 (ENT-70)”, “4×10^4” for “2×10^4”
(§5) The Coxsackie strains A-21 (CVA-21) and B-3 (CVB-3) were purchased from American Type Culture Collection (ATCC). Virus stocks were propagated and antiviral assays were performed in HI-HeLa cells (ATCC). Cells were grown in Minimal Essential Medium with 10% fetal bovine serum.

[6] = target: T2, Rhinovirus 3C protease (RVP) serotype 2 (Human rhinovirus 2, UniProt P04936); assay: Inhibition of Rhinovirus Protease, serotype 2 (FRET assay); format: biochemical; conditions: enzyme start experiments, read-out: kobs/I
T2 construct: Recombinant Rhinovirus 3C proteases from serotypes 14, 16, 2 or 89 were prepared; made in house
Method: as §3, §4

[7] = system: ECHO-11; assay: Echovirus-11 MRC5 Cell Culture Assay; format: cell-based, Echovirus strain 11; conditions: for EC50: Echovirus, 24 h, ECHO-11 infection of MRC5 cells, XTT, one day
Method: as §1, §2

[8] = target: T3, Rhinovirus 3C protease (RVP) serotype-14 (Human rhinovirus 14, UniProt P03303); assay: Inhibition of Rhinovirus Protease, serotype 14 (FRET assay); format: biochemical; conditions: for kinact/KI: read-out: kobs/I
T3 construct: Recombinant Rhinovirus 3C proteases from serotypes 14, 16, 2 or 89 were prepared; made in house
Method in brief: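 Recombinant HRV 3C protease (50–100 nM) in 50 mM tris pH 7.6, 1 mM EDTA, 2% DMSO, with ~1 μM DABCYL-GRAVFQGPVG-EDANS FRET substrate; cleavage read as fluorescence increase. Ki: compound and enzyme preincubated 10 min at 30° C before substrate start; kobs/I from enzyme-start progress curves. Values are percent inhibition at stated μM, or Ki.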

[9] = in vitro; format: cell-based; conditions: human, hi-hela cells; remark: listed apart in the source
Method: as §2, with “CVA-21” for “ECHO-11”, “CVB-3” for “ENT-70”, “HI-HeLa” for “MRC5”, “0.05 (CVA-21)” for “0.0013 (ECHO-11)”, “0.08 (CVB-3)” for “0.0017 (ENT-70)”, “4×10^4” for “2×10^4”
as §5

[10] = in vitro; format: cell-based; conditions: human, mrc5 cells
Method: as §1, §2

[11] = system: MRC5 cells; assay: in vitro; format: cell-based
Method: as §1, §2

[12] = system: HRV 1A; assay: Antirhinoviral HI-HeLa Cell Culture Assay (cell protection, XTT), HRV 1A; format: cell-based, human rhinovirus
Method: (§6) In the Cell Protection Assay, the ability of compounds to protect cells against HRV infection was measured by the XTT dye reduction method. This method is described in O. S. Weislow, R. Kiser, D. L. Fine, J. Bader, R. H. Shoemaker, and M. R. Boyd, J. Natl. Cancer Inst. 1989, 81, 577-586, which document is entirely incorporated herein by reference.
(§7) HI-HeLa cells were infected with HRV-14 (unless otherwise noted) at a multiplicity of infection (m.o.i.) of 0.13 (virus particles/cell) or mock-infected with medium only. Infected or mock-infected cells were resuspended at 8×10^5 cells per mL and incubated with appropriate concentrations of compounds of formulas I and II. Two days later, XTT/PMS was added to test plates, and the amount of formazan produced was quantified spectrophotometrically at 450/650 nm. The EC50 was calculated as the concentration of compound that increased the percentage of formazan production in compound-treated, virus-infected cells to 50% of that produced by compound-free mock-infected cells. The 50% cytotoxic dose (CC50) was calculated as the concentration of compound that decreased the percentage of formazan produced in compound-treated, mock-infected cells to 50% of that produced in compound-free, mock-infected cells. The therapeutic index (TI) was calculated by dividing the CC50 by the EC50. […]

[13] = system: HRV 10; assay: Antirhinoviral HI-HeLa Cell Culture Assay (cell protection, XTT), HRV 10; format: cell-based, human rhinovirus
Method: as §6, §7

[14] = system: CVB-3; assay: Anticoxsackieviral HI-HeLa Cell Culture Assay, CVB-3; format: cell-based, Coxsackie strain B-3; conditions: 24 h; CVB-3 infection of Hi-HeLa cells, XTT, one day
Method: as §2, with “CVA-21” for “ECHO-11”, “CVB-3” for “ENT-70”, “HI-HeLa” for “MRC5”, “0.05 (CVA-21)” for “0.0013 (ECHO-11)”, “0.08 (CVB-3)” for “0.0017 (ENT-70)”, “4×10^4” for “2×10^4”
as §5

[15] = system: HI-HeLa cells; assay: in vitro; format: cell-based; conditions: human, 24 h
Method: as §2, with “CVA-21” for “ECHO-11”, “CVB-3” for “ENT-70”, “HI-HeLa” for “MRC5”, “0.05 (CVA-21)” for “0.0013 (ECHO-11)”, “0.08 (CVB-3)” for “0.0017 (ENT-70)”, “4×10^4” for “2×10^4”
as §5

T3 sequence (P03303 1538-1719): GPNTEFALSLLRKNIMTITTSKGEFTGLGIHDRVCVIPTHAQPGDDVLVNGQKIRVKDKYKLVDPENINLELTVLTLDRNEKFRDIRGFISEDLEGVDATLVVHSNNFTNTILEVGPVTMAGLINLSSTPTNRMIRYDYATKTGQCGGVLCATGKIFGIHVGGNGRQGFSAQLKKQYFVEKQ
T2 sequence (P04936 1508-1690): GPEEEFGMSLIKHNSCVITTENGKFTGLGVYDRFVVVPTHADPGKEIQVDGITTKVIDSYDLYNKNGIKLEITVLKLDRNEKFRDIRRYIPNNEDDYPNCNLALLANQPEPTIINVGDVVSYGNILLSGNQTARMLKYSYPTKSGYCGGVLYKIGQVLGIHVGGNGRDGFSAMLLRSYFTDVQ
T1 sequence (Q82122 1511-1693): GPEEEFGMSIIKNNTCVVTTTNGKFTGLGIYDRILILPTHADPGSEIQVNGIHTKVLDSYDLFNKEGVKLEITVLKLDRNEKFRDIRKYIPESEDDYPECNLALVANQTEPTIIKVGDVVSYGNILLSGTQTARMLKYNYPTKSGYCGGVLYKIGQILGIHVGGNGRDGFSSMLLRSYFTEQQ

Row | SMILES | EC50 [1] | CC50 at 48 h [2] | TI [3] | EC50 [3] | EC50 [5] | EC50 [7] | kinact/KI [8] | CC50 at 24 h [9] | CC50 at 24 h [10] | EC50 [14] | CC50 [15] | CC50 ([11]; human, mrc5 cells, 24 h) | further results
1 | CCOC(=O)/C=C/[C@H](CCC(N)=O)NC(=O)[C@H](Cc1ccc(OC)cc1)N(C)C(=O)[C@H](CC(C)C)NC(=O)SCC [Compound 4] | 0.3 µM | 200 µM | 870 | 0.23 µM | 1.8 µM | 3.2 µM | 43800 M⁻¹ s⁻¹ | 200 µM | 200 µM |  |  |  | TI ([1]; CC50/EC50, ENT-70, 1440 min): 667; kinact/KI [4]: 2010 M⁻¹ s⁻¹; TI ([5]; CC50/EC50, CVA-21): 111; kinact/KI [6]: 541 M⁻¹ s⁻¹; TI ([7]; CC50/EC50, ECHO-11, 1440 min): 62.5; Ki ([8]; RVP serotype-14, 10 minute preincubation with 50 nM RVP prior to addition of substrate, read-out: INHIB (Ki)): 2.9 µM; CC50 [11]: 200 µM
2 | CCOC(=O)/C=C/[C@H](CCC(N)=O)NC(=O)[C@H](Cc1ccccc1)N(C)C(=O)[C@H](CC(C)C)NC(=O)c1cc(C)on1 [Compound 59] |  | > 100 µM | > 714 | 0.14 µM |  |  | 108000 M⁻¹ s⁻¹ |  |  |  |  |  | TI ([12]; CC50/EC50, HRV 1A, 2880 min): > 250; EC50 ([12]; Human rhinovirus sp., HRV 1A infected HI-HeLa cells): 0.4 µM; TI ([13]; CC50/EC50, HRV 10, 2880 min): > 250; EC50 ([13]; Human rhinovirus sp., HRV 10 infected HI-HeLa cells): 0.4 µM
3 | CCOC(=O)c1ccc(OCCC2CCN(c3ccc(C)nn3)CC2)cc1 [Pirodavir, reference compound] | > 100 µM | > 10 µM | > 300 | 0.03 µM | > 100 µM | > 100 µM |  | > 100 µM | > 100 µM | > 100 µM | > 100 µM | > 100 µM | 
4 | Cc1cc(CCCCCOc2c(Cl)cc(C3=NCCO3)cc2Cl)on1 [WIN 54954, reference compound] | > 100 µM | > 63 µM | > 30 | 2.13 µM | > 100 µM | > 100 µM |  | > 100 µM | > 100 µM | > 100 µM | > 100 µM | > 100 µM | 
